Assay results as given in ChEMBL document CHEMBL1145448, “Synthesis and evaluation of tripodal peptide analogues for cellular delivery of phosphopeptides” (J Med Chem, 2007).
Non-standard residues stand in square brackets, D forms with d. Residues, ends and D or L forms follow the SMILES beside them. *: point of attachment. X1 = O=C(O)c1cc(C(=O)*)ccc1-c1c2ccc(=O)cc-2oc2cc(O)ccc12; pY = N[C@@H](Cc1ccc(OP(=O)(O)O)cc1)C(=O)O; 12Ado = NCCCCCCCCCCCC(=O)O

Tests used:
[1] = Cellular uptake in BT20 cells in presence of 77 mM sodium azide; type: ADME, cell-based; details: human, bt-20
[2] = Cytotoxicity against BT20 cells by cell viability assay; type: cell-based; details: human, bt-20

**Q.** With `N=C(N)NCCC[C@H](NC(=O)CCCCCCCCCCCNC(=O)[C@H](CCCNC(=N)N)NC(=O)CCCCCCCCCCCNC(=O)[C@H](CCCCN)NC(=O)CNC(=O)c1ccc(-c2c3ccc(=O)cc-3oc3cc(O)ccc23)c(C(=O)O)c1)C(=O)O` (X1-GK[12Ado]R[12Ado]R-OH) as the compound, how does the Activity [1] read?
**A.** Active

**Q.** And the Activity [2]?
**A.** > 96%

**Q.** For `CC[C@H](C)[C@H](NC(=O)[C@H](CCC(=O)O)NC(=O)[C@H](CCC(=O)O)NC(=O)[C@H](Cc1ccc(OP(=O)(O)O)cc1)NC(=O)CNC(=O)c1ccc(-c2c3ccc(=O)cc-3oc3cc(O)ccc23)c(C(=O)O)c1)C(=O)O` (X1-G[pY]EEI-OH), which Activity [2] is on record?
**A.** > 96%
